This passage reports melting point results from US7618961B2, “Inhibitors of 11-beta-hydroxy steroid dehydrogenase type 1” (Biovitrum AB, priority 2000, dated 2009).

Structures can show the parent of a compound that is named as a salt.

`CCOCCc1nc(NS(=O)(=O)c2cccc(Cl)c2C)sc1CN(C)C` [Example 190A, 3-Chloro-N-[5-[(dimethylamino)methyl]-4(2-ethoxyethyl)-1,3-thiazol-2-yl]-2-methylbenzenesulfonamide]: the melting point was in the range of 152 to 153 °C.

For `CNC(=O)Cc1csc(NS(=O)(=O)c2cccc(Cl)c2C)n1` [Example 106A, 2-(2-{[(3-Chloro-2-methylphenyl)sulfonyl]amino}-1,3-thiazol-4-yl)-N-methylacetamide], the melting point was 165 °C. `Cc1c(Cl)cccc1S(=O)(=O)Nc1nc(CC(=O)Oc2ccccc2)cs1` [Example 89A, Phenyl 2-(2-{[(3-chloro-2-methylphenyl)sulfonyl]amino}-1,3-thiazol-4-yl)acetate] came in with a melting point of 189 °C. As for `Cc1c(Cl)cccc1S(=O)(=O)Nc1nc(CCOC(=O)C(C)C)cs1` [Example 193A, 2-(2-{[(3-Chloro-2-methylphenyl)sulfonyl]amino}-1,3-thiazol-4-yl)ethyl 2-methylpropanoate], the figure is 118 °C; as for `Cc1c(Cl)cccc1S(=O)(=O)Nc1nc(CC(=O)N2CCCC2)cs1` [Example 142A, 3-Chloro-2-methyl-N-{4-[2-oxo-2-(1-pyrrolidinyl)ethyl]-1,3-thiazol-2-yl}benzenesulfonamide], 107 °C. As for `CCOC(=O)Cc1csc(NS(=O)(=O)c2cccc(Br)c2)n1` [Example 12A, Ethyl 2-(2-{[(3-bromophenyl)sulfonyl]amino}-1,3-thiazol-4-yl)acetate], the melting point stood at 155 °C. As to `CCOC(=O)Cc1csc(NS(=O)(=O)c2ccc(C(F)(F)F)cc2)n1` [Example 27A, Ethyl [2-({[4-(trifluoromethyl)phenyl]sulfonyl}amino)-1,3-thiazol-4-yl]acetate], the melting point worked out at 174 °C.

In the case of `Cc1cc(Cl)cc(Cl)c1S(=O)(=O)Nc1nc(CC(=O)N2CCOCC2)c(C)s1` [Example 159A, 2,4-Dichloro-6-methyl-N-{5-methyl-4-[2-(4-morpholinyl)2-oxoethyl]-1,3-thiazol-2-yl}benzenesulfonamide], the melting point was 186 to 187 °C.

Compound `Cc1sc(NS(=O)(=O)c2cccc(Cl)c2C)nc1CC(=O)N1CCOCC1` [Example 162A, 3-chloro-2-methyl-N-{5-methyl-4-[2-(4-morpholinyl)-2-oxoethyl]-1,3-thiazol-2-yl}benzenesulfonamide] had a melting point of 194 to 195 °C.

For `O=C(O)Cc1csc(NS(=O)(=O)c2ccccc2Cl)n1` [Example 86A, (2-{[(2-Chlorophenyl)sulfonyl]amino}-1,3-thiazol-4-yl)acetic acid], the melting point turned out to be 176 °C. On to `CCC(=O)OCCc1csc(NS(=O)(=O)c2cccc(Cl)c2C)n1` [Example 192B, 2-(2-{[(3-Chloro-2-methylphenyl)sulfonyl]amino}-1,3-thiazol-4-yl)ethyl propionate], for which the melting point came to 122 °C. In turn, `Cc1sc(NS(=O)(=O)c2c(Cl)cc(Cl)cc2Cl)nc1CC(=O)N1CCOCC1` [Example 161A, 2,4,6-trichloro-N-{5-methyl-4-[2-(4-morpholinyl)-2-oxoethyl]-1,3-thiazol-2-yl}benzenesulfonamide] showed a melting point of 216 to 217 °C. Under `Cc1c(Cl)cccc1S(=O)(=O)Nc1nc(CC(=O)Nc2ccccc2)cs1` [Example 108A, 2-(2-{[(3-Chloro-2-methylphenyl)sulfonyl]amino}-1,3-thiazol-4-yl)-N-phenylacetamide] stands 202 °C; under `Cc1sc(NS(=O)(=O)c2ccc(-c3ccccc3)cc2)nc1CC(=O)N1CCOCC1` [Example 160A, N-{5-methyl-4-[2-(4-morpholinyl)-2-oxoethyl]-1,3-thiazol-2-yl}[1,1′-biphenyl]-4-sulfonamide], 204 to 206 °C. Under `Cc1c(Cl)cccc1S(=O)(=O)Nc1nc(CC(=O)O)cs1` (as salt: salt) [Example 87A, 2-(2-{[(3-Chloro-2-methylphenyl)sulfonyl]amino}-1,3-thiazol-4-yl)acetic acid] stands 198 °C; under `CCNC(=O)Cc1csc(NS(=O)(=O)c2cccc(Cl)c2C)n1` [Example 107A, 2-(2-{[(3-Chloro-2-methylphenyl)sulfonyl]amino}-1,3-thiazol-4-yl)-N-ethylacetamide], 96 °C. Turning to `CCOC(=O)Cc1csc(NS(=O)(=O)c2cc(Cl)ccc2Cl)n1` [Example 77A, Ethyl (2-{[(2,5-dichlorophenyl)sulfonyl]amino}-1,3-thiazol-4-yl)acetate], the melting point was determined as 171 °C.

Consider `COC(=O)Cc1csc(NS(=O)(=O)c2cccc(Cl)c2C)n1` [Example 90A, Methyl (2-{[(3-chloro-2-methylphenyl)sulfonyl]amino}-1,3-thiazol-4-yl)acetate], for which the melting point was 187 °C. In turn, `Cc1c(Cl)cccc1S(=O)(=O)Nc1nc(CC(=O)N(C)C)cs1` [Example 131A, 2-(2-{[(3-Chloro-2-methylphenyl)sulfonyl]amino}-1,3-thiazol-4-yl)-N,N-dimethylacetamide] came in with a melting point of 84 °C. Under `CCOC(=O)Cc1csc(NS(=O)(=O)c2ccccc2C(F)(F)F)n1` [Example 25A, Ethyl [2-({[2-(trifluoromethyl)phenyl]sulfonyl}amino)-1,3-thiazol-4-yl]acetate] stands 171 °C; under `O=C(O)Cc1csc(NS(=O)(=O)c2cc(Cl)sc2Cl)n1` (as salt: salt) [Example 85A, 2-(2-{[(2,5-Dichloro-3-thienyl)sulfonyl]amino}-1,3-thiazol-4-yl)acetic acid], 174 °C; under `Cc1ccc(S(=O)(=O)Nc2nc(CC(=O)O)cs2)cc1` [Example 84A, 2-(2-{[(4-Methylphenyl)sulfonyl]amino}-1,3-thiazol-4-yl)acetic acid], 187 °C.

Turning to `Cc1c(Cl)cccc1S(=O)(=O)Nc1nc(CC(=O)N2CCSCC2)cs1` [Example 165A, 3-Chloro-2-methyl-N-{4-[2-oxo-2-(4-thiomorpholinyl)ethyl]-1,3-thiazol-2-yl}benzenesulfonamide], the melting point lay in the range of 103 to 106 °C. As for `CCOC(=O)Cc1csc(NS(=O)(=O)c2ccc(Br)cc2)n1` [Example 28A, Ethyl 2-(2-{[(4-bromophenyl)sulfonyl]amino}-1,3-thiazol-4-yl)acetate], the figure is 183 °C; as for `CCOC(=O)Cc1csc(NS(=O)(=O)c2ccc(C)cc2)n1` [Example 5A, Ethyl 2-(2-(((4-methylphenyl)sulfonyl)amino)-1,3-thiazol-4-yl)acetate], 173 °C. As for `CCOC(=O)Cc1csc(NS(=O)(=O)c2cccc(Cl)c2C)n1` [Example 8A, Ethyl 2-(2-{[(3-chloro-2-methylphenyl)sulfonyl]amino}-1,3-thiazol-4-yl)acetate], the figure is 154 °C. As for `CCNC(=O)Cc1csc(NS(=O)(=O)c2ccc(F)cc2F)n1` [Example 102A, 2-(2-{[(2,4-Difluorophenyl)sulfonyl]amino}-1,3-thiazol-4-yl)-N-ethylacetamide], the figure is 150 °C; as for `Cc1c(Cl)cccc1S(=O)(=O)Nc1nc(CC(=O)NC(c2ccccc2)c2ccccc2)cs1` [Example 113A, N-Benzhydryl-2-(2-{[(3-chloro-2-methylphenyl)sulfonyl]amino}-1,3-thiazol-4-yl)acetamide], 200 °C.

With `CNC(=O)Cc1csc(NS(=O)(=O)c2cc(Cl)sc2Cl)n1` [Example 99A, 2-(2-{[(2,5-Dichloro-3-thienyl)sulfonyl]amino}-1,3-thiazol-4-yl)-N-methylacetamide], the melting point worked out at 183 °C. Under `Cc1c(Cl)cccc1S(=O)(=O)Nc1nc(CCOC(=O)N2CCOCC2)cs1` [Example 196A, 2-(2-{[(3-Chloro-2-methylphenyl)sulfonyl]amino}-1,3-thiazol-4-yl)ethyl 4-morpholinecarboxylate] stands 161 °C. As for `Cc1c(Cl)cccc1S(=O)(=O)Nc1nc(CC(=O)N2CCOCC2)cs1` [Example 148A, 3-Chloro-2-methyl-N-{4-[2-(4-morpholinyl)-2-oxoethyl]-1,3-thiazol-2-yl}benzenesulfonamide], the figure is 208 to 209 °C; as for `CCOC(=O)Cc1csc(NS(=O)(=O)c2ccc(-c3ccccc3)cc2)n1` [Example 10A, Ethyl 2-{2-[([1,1′-biphenyl]-4-ylsulfonyl)amino]-1,3-thiazol-4-yl}acetate], 182 °C. As for `CCOC(=O)Cc1csc(NS(=O)(=O)c2cccc(C(F)(F)F)c2)n1` [Example 26A, Ethyl [2-({[3-(trifluoromethyl)phenyl]sulfonyl}amino)-1,3-thiazol-4-yl]acetate], the melting point turned out to be 145 °C.
